According to paper PMC6548519 (Nature chemical biology, 2019):

Key:
[1] = molecular target: T1, FAAH-4 (Caenorhabditis elegans, UniProt Q9U217); assay type: biochemical
T1 sequence (Q9U217 1-647): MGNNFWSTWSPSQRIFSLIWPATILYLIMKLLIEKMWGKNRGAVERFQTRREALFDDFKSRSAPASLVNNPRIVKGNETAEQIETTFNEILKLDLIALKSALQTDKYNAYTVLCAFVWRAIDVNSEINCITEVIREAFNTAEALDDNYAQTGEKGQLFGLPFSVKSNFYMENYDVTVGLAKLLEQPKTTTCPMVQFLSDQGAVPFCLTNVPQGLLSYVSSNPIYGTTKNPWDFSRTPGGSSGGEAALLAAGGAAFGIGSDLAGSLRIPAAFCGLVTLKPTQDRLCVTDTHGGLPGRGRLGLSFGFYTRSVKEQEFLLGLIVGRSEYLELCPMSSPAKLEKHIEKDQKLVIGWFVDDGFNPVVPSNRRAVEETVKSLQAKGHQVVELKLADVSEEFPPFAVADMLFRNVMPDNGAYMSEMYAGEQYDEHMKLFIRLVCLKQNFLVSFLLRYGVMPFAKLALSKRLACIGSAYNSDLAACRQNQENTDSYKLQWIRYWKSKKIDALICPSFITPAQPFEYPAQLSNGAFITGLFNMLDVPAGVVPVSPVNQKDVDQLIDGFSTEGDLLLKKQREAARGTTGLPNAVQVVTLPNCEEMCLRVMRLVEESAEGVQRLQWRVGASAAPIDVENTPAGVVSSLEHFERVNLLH

[2] = molecular target: T2, FAAH-1 (Caenorhabditis elegans, UniProt Q17449); test: MS-based competitive ABPP of worms treated in vivo; assay type: cell-based
T2 sequence (Q17449 15-572): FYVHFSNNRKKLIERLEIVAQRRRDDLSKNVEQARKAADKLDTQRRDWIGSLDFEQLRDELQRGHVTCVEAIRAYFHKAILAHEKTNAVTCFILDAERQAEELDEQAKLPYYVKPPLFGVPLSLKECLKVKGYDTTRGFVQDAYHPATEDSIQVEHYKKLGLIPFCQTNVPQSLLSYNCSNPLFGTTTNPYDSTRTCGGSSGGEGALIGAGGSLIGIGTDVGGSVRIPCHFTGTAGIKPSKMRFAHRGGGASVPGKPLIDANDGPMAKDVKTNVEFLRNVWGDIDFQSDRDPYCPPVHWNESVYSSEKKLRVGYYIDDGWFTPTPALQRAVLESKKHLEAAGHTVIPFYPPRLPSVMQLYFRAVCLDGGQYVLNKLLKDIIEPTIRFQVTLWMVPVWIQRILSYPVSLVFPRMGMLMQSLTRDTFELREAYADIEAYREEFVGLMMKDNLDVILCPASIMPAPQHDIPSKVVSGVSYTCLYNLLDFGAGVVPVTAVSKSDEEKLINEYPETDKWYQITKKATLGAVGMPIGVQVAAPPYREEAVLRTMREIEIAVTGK

SMILES | IC50 [1] [µM] | MS-based competitive ABPP of worms treated in vivo (50 μM) [2]
O=C(Oc1ccc([N+](=O)[O-])cc1)N1CCC(C(O)(c2ccc3c(c2)OCO3)c2ccc3c(c2)OCO3)CC1 [compound 1, JZL184] | 11 | 
NC(=O)c1cccc(-c2cccc(OC(=O)NC3CCCCC3)c2)c1 [compound 6, URB597] |  | URB597 also strongly engaged C. elegans FAAH-1 in vivo
